{"source": "patent US20090093538A1", "about": "“Method for treating cancer” (priority 2007, published 2009)", "key": {"Ramos cells": {"tested_on": "Ramos cells", "experiment": "ROS generation, carboxy-H2DCFDA probe, flow cytometry", "type": "cell-based", "protocol": "In these experiments, we monitored the production of ROS using the cell permeable Carboxy-H2DCFDA probe. When this probe is oxidized by ROS, it emits a green fluorescence that can be detected using flow cytometry or fluorescent microscopy. […] 25 μM carboxy-H2DCFDA (Invitrogen. C400) working solution was added to cover the cells, and the cells were incubate for 30 minutes at 37° C., protected from light. The cells were gently washed three times in warm HBSS/Ca/Mg. ROS levels, as determined by fluorescence intensity, were determined by flow cytometry (excitation at 495 nm, emission at 529 nm).\nTiron is a direct scavenger of ROS and is a potent inhibitor of oxidative stress.\nRamos cells were treated with elesclomol (500 nM) for the indicated times then washed gently once with warm HBSS/Ca/Mg (Invitrogen Carlsbad, Calif. Cat# 14025). 25 μM carboxy-H2DCFDA (Invitrogen Cat #C400) working solution was added to cover the cells and they were incubated for 30 minutes at 37° C., protected from light. The cells were gently washed three times in warm HBSS/Ca/Mg. ROS levels (fluorescence intensity) were determined by flow cytometry (excitation at 495 nm, emission at 529 nm) using a Becton Dickinson FACSCalibur equipped with CellQuest Pro software. Data is plotted as percent of elesclomol-treated cells with DCFDA fluorescence relative to DMSO (control) treated cells (see FIG. 49)."}, "Hsp70": {"tested_on": "Hsp70", "experiment": "Hsp70 secretion by cultured tumor cells (ELISA)", "type": "cell-based, human", "details": "MDA-MB-435, 0.04 μM or 0.2 μM, 72 h", "protocol": "MDA-MB-435 tumor cells were seeded at 15,000 cells/150 μl/well of 48-well plate and cultured in DMEM supplemented with 10% fetal bovine serum. The compounds were dissolved in dimethyl sulfoxide (DMSO) then a solution was prepared containing 0.04 μM or a 0.2 μM in 25% DMSO and 75% culture medium. […] The medium was then separated from the cells and Hsp70 was measured by ELISA kit from Stressgen. Cell viability was checked by CCK-8 cell count assay (Dojindo) at 88 hr."}}}
{"smiles": "CN(NC(=O)CC(=O)NN(C)C(=S)c1ccccc1)C(=S)c1ccccc1", "note": "[Compound 1]", "values": [{"measurement": "generation of ROS", "setting": "Ramos cells; 0.5 μM, 24 hours", "value": "induced the generation of ROS"}, {"measurement": "earliest time at which induction of ROS was observed", "setting": "Ramos cells; Ramos cells, time course", "value": 3, "unit": "h"}, {"measurement": "secretion of Hsp70", "setting": "Hsp70", "value": "increased the secretion of Hsp70 by the cells in a dose dependent manner"}]}
